Columns and labels:
[1] = In vitro enzyme assay to detect hydrolysis of chlorophenol red-beta-D-[…] directly proportional to the number of Toxoplasma stably expressing beta-galactosidase; assay type: functional, organism-based, Toxoplasma gondii; conditions: for IC50: Toxoplasma gondii
[2] = microbe, parasite or virus in culture; conditions: Mycobacterium tuberculosis, 96 h, read-out: pIC50 (converted)

SMILES	IC50 [1]	pIC50 [1]	IC50 [2]
CN1CCCN(C(=O)COc2ccc(Br)cc2)CC1	> 50.1 µM		
CC(C)[C@@H]1CN(c2ncc(F)cn2)C[C@H]1NS(=O)(=O)N(C)C	> 50.1 µM		
COc1ccccc1N1CCCC(N)C1 (configuration not stated)	> 50.1 µM		
CCNC1CCS(=O)(=O)C1 (configuration not stated)	> 50.1 µM		
N#Cc1ccc(-n2nccc2N)cc1	13.6 µM		
CC(C)(CO)C(N)c1ccccc1 (configuration not stated)	> 50.1 µM		
NC(=O)N1CCCCCC1C1CCNCC1 (configuration not stated)	> 50.1 µM		
CC1CN(C)CCC1=O (configuration not stated)	> 50.1 µM		
Cc1nnc(SCCO)s1	> 50.1 µM		
CNC(=O)NCc1cccnc1OC1CCCC1	> 50.1 µM		
CC(=O)Nc1ncc(S(=O)(=O)Nc2ccccc2F)s1	31.2 µM		
COCC(=O)N1C[C@@H](OCc2ccncc2)[C@@H]2OCCC[C@@H]21	> 50.1 µM		
CC(C)COCCC(=O)Nc1nccs1	> 50.1 µM		
O=C1NCCN(C(=O)c2ccc(Br)o2)C1c1cccs1 (configuration not stated)	> 50.1 µM		
CN(C)CCCNCCC(Cc1ccccc1)C1CCOC(C)(C)C1.O=C(O)C(=O)O (configuration not stated)	4.6 µM	5.163	
CCn1c(NCc2ccc(OC)cc2)nc2c(C)nn(C)c2c1=O	> 50.1 µM		
Cc1ccoc1C(=O)NC1CCN(Cc2csc3c(F)cccc23)CC1	8.38 µM		
CCC1=NC(SCC(=O)c2ccc(C)cc2)c2cc(CC)sc2N1 (configuration not stated)	> 50.1 µM		
Cc1c(-c2ccccc2)nc2c(c(C)c(C)n2CCN(C)C)c1N	15.6 µM		
NCc1ccnc(N2CCCC2)n1	> 50.1 µM		
CSCc1ccc(C(=O)N(C)Cc2cnccn2)o1	> 50.1 µM		
COc1ccc(-c2nnc(SC(C)C(=O)NC3CCCC3)[nH]2)c(OC)c1 (configuration not stated)	> 50.1 µM		
CC(C)n1cc(S(=O)(=O)N2CCCCCC2)cn1	> 50.1 µM		
O=C(CC1CCCC1)NCCc1noc(CO)n1	> 50.1 µM		
O=C(NCCN1CCOCC1)c1cc(-c2ccc(Cl)s2)[nH]n1	5.29 µM		
CCn1nc(C)c2nc(C(C)C)nc(NCCCn3cccn3)c21	35.2 µM		
CS(=O)(=O)N1CCOCC2(CCN(c3ccccn3)C2)C1 (configuration not stated)	> 50.1 µM		

SMILES	IC50 [1]	pIC50 [1]	IC50 [2]
CCc1nc(C(C)(C)N)[nH]c(=O)c1C	> 50.1 µM		
N#Cc1c(Cl)nsc1NCC1(c2ccccc2)CCC1	5.72 µM		
CNc1ncc(C(=O)N2CCCC(Cc3ccccc3OC)C2)s1 (configuration not stated)	45.9 µM		
Cn1cc(CN2CCn3cc(Cn4cccn4)nc3C2)cn1	> 50.1 µM		
CC(NC(=O)c1ccc(Cl)cc1)c1nnc(SCC(=O)O)n1C (configuration not stated)	29.3 µM		
CN(C)c1ncc2c(n1)CN(C1CCSCC1)C2=O	> 50.1 µM		
CNc1cccnc1N(C)C	> 50.1 µM		
Cc1ocnc1CNC(=O)c1ccon1	> 50.1 µM		
CCOc1ncccc1C(=O)NCC(C)N1CCCC1 (configuration not stated)	> 50.1 µM		
CC(C)CCC(=O)N1CCC(C)(CO)C1 (configuration not stated)	> 50.1 µM		
CNCc1ccc(N)nc1	> 50.1 µM		
CCNC(C)(C)C(=O)N(C)Cc1ccc(OC)c(F)c1	> 50.1 µM		
CNC(=O)C1(N(C)CCc2ccccc2)Cc2ccccc2C1	11.3 µM		
CC(c1cccs1)n1nccc1N (configuration not stated)	> 50.1 µM		
O[C@@H]1CN(c2nc3ccccc3s2)CC[C@H]1c1ccc2c(c1)OCO2	5.27 µM		
Cc1nccn1CCNc1cc(C2CC(O)C2)ncn1 (configuration not stated)	> 50.1 µM		
COc1ccc(C(=O)Nc2c(C(=O)N(C)C)nn(C)c2C)cc1	> 50.1 µM		
O=C(Nc1ccc(Br)cn1)C1CCCNC1 (configuration not stated)	> 50.1 µM		
NCCc1cc(-c2ccncc2)[nH]n1	> 50.1 µM		
CCNc1ncc2c(n1)CN(c1ccc(CC)cc1)C2=O	> 50.1 µM		> 50.1 µM
c1cc(-c2nn3c(CN4CCOCC4)nnc3s2)ccn1	44.7 µM	< 4.3	
COCC(=O)N1CCn2c(COc3cccnc3)cnc2C1C (configuration not stated)	> 50.1 µM		
Cc1cccc(Cn2cc(Br)c(NS(C)(=O)=O)n2)c1	> 50.1 µM		
Nc1ccc(CN2CCN(CCO)CC2)cn1	> 50.1 µM		
COCc1nnc(-c2cccc(C(=O)N(C)CC(C)(C)C)c2)o1	> 50.1 µM		
COCc1ccccc1C(=O)N1CCCC(O)C1 (configuration not stated)	> 50.1 µM		
CCN(CC)Cc1nnnn1-c1ccccc1	> 50.1 µM		

Reference: ChEMBL document CHEMBL3988442, “University of Dundee, Small-Polar-MMV Screening Library” (2021)
